How the values were obtained:
[1] = biological target: Serine/threonine-protein kinase Nek1 (Homo sapiens) (UniProt Q96PY6); conditions: Compound concentration 1000.0 nM
[2] = biological target: TGF-beta receptor type-1 (Homo sapiens) (UniProt P36897); conditions: Compound concentration 1000.0 nM
[3] = biological target: Vascular endothelial growth factor receptor 3 (Homo sapiens) (UniProt P35916); conditions: Compound concentration 1000.0 nM
[4] = biological target: Serine/threonine-protein kinase ICK (Homo sapiens) (UniProt Q9UPZ9); conditions: Compound concentration 1000.0 nM
[5] = biological target: Beta-adrenergic receptor kinase 1 (Homo sapiens) (UniProt P25098); conditions: Compound concentration 1000.0 nM
[6] = biological target: Serine/threonine-protein kinase D1 (Homo sapiens) (UniProt Q15139); conditions: Compound concentration 1000.0 nM
[7] = biological target: Phosphatidylinositol 4-phosphate 5-kinase type-1 alpha (Homo sapiens) (UniProt Q99755); conditions: Compound concentration 1000.0 nM
Phosphatidylinositol 4-phosphate 5-kinase type-1 alpha (Homo sapiens), sequence (Q99755 whole entry): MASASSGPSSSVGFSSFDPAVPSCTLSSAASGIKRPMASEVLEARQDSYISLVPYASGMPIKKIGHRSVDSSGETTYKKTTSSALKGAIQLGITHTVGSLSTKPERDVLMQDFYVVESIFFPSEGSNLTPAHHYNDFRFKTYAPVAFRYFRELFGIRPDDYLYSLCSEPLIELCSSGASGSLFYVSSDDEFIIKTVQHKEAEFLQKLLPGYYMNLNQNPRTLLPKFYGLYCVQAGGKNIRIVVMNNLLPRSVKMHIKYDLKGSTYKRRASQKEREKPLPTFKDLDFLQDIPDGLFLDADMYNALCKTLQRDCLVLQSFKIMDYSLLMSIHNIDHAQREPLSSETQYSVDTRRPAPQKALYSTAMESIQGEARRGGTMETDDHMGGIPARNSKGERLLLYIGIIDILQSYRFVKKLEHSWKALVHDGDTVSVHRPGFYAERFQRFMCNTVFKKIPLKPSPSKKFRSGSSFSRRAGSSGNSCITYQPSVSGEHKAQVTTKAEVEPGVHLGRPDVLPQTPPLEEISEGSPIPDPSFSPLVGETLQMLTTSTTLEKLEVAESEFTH

[8] = biological target: T1, Muscarinic acetylcholine receptor M1 (Homo sapiens) (UniProt P11229); conditions: Compound concentration 10.0 uM
T1 sequence (whole entry): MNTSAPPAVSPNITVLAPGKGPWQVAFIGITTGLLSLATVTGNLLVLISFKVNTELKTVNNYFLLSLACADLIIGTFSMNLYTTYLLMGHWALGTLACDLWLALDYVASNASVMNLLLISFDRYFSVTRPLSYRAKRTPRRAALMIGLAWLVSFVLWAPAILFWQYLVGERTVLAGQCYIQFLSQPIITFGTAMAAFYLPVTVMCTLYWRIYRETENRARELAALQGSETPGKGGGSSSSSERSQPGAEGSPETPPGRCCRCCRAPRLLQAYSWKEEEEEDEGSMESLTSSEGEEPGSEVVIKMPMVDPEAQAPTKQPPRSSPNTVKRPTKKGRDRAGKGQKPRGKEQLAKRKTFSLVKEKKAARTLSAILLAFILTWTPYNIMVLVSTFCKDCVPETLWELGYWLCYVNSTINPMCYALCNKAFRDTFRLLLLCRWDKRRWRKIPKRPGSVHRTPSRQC

[9] = biological target: Non-receptor tyrosine-protein kinase TNK1 (Homo sapiens) (UniProt Q13470); conditions: Compound concentration 1000.0 nM
[10] = biological target: Alpha-1B adrenergic receptor (Homo sapiens) (UniProt P35368); conditions: Compound concentration 10.0 uM
[11] = biological target: Ephrin type-B receptor 1 (Homo sapiens) (UniProt P54762); conditions: Compound concentration 1000.0 nM
[12] = biological target: Sigma non-opioid intracellular receptor 1 (Homo sapiens, UniProt Q99720); experiment: GPCRScan assay: inhibition of Sigma 1; parameters: radioligand conc. used [nm] 4.0 – 5.0, parental cells HEKT
[13] = biological target: Macrophage colony-stimulating factor 1 receptor (Homo sapiens) (UniProt P07333); conditions: Compound concentration 1000.0 nM
[14] = biological target: Serine/threonine-protein kinase PRP4 homolog (Homo sapiens) (UniProt Q13523); conditions: Compound concentration 1000.0 nM
[15] = biological target: Cyclin-dependent kinase-like 5 (Homo sapiens) (UniProt O76039); conditions: Compound concentration 1000.0 nM
Cyclin-dependent kinase-like 5 (Homo sapiens), sequence (O76039 whole entry): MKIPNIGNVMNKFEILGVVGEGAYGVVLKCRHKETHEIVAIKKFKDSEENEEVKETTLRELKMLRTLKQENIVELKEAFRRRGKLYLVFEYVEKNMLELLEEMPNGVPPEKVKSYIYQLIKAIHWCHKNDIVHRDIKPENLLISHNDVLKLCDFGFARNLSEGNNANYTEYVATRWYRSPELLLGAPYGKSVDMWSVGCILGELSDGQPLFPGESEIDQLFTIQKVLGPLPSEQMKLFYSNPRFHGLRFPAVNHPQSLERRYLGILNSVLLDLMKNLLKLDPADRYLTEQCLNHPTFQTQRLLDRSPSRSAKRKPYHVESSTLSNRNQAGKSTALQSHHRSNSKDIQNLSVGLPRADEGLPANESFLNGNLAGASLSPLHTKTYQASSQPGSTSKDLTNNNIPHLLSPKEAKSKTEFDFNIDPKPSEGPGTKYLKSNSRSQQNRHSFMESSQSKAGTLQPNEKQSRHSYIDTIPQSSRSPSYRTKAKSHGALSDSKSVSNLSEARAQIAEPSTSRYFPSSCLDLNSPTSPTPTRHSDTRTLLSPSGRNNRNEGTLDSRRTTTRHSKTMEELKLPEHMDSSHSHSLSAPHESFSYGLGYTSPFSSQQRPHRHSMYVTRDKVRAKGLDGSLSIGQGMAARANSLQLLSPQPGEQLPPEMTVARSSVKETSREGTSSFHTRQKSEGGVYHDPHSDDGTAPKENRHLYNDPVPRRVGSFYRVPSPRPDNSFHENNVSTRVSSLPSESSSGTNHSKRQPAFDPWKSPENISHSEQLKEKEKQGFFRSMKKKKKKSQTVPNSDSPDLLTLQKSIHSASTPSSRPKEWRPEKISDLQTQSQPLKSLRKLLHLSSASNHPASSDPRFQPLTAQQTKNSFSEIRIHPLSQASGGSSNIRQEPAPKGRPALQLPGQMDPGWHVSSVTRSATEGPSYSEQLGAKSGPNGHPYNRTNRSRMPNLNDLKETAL

[16] = biological target: Wee1-like protein kinase (Homo sapiens) (UniProt P30291); conditions: Compound concentration 1000.0 nM
Wee1-like protein kinase (Homo sapiens), sequence (P30291 whole entry, looked up): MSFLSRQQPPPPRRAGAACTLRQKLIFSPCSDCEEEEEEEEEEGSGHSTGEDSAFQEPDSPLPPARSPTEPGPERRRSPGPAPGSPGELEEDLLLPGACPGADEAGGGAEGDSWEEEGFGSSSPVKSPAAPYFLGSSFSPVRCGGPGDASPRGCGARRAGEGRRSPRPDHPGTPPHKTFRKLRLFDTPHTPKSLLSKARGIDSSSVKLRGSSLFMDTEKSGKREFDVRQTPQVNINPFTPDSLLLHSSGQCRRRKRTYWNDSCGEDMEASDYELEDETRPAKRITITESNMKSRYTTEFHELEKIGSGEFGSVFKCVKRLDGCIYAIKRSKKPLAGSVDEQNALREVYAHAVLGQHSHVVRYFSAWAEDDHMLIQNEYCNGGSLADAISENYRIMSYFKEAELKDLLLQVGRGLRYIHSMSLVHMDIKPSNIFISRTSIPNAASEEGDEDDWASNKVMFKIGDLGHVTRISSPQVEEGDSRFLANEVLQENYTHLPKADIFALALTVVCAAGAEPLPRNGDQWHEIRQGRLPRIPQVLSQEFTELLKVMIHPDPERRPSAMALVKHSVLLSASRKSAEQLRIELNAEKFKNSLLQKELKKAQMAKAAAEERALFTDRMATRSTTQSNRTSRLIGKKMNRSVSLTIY

[17] = biological target: Mitogen-activated protein kinase kinase kinase 6 (Homo sapiens) (UniProt O95382); conditions: Compound concentration 1000.0 nM
[18] = biological target: Cyclin-dependent kinase 7 (Homo sapiens) (UniProt P50613); conditions: Compound concentration 1000.0 nM
[19] = biological target: Mitogen-activated protein kinase kinase kinase 14 (Homo sapiens) (UniProt Q99558); conditions: Compound concentration 1000.0 nM
[20] = biological target: Cyclin-dependent kinase 9 (Homo sapiens) (UniProt P50750); conditions: Compound concentration 1000.0 nM
Cyclin-dependent kinase 9 (Homo sapiens), sequence (P50750 whole entry): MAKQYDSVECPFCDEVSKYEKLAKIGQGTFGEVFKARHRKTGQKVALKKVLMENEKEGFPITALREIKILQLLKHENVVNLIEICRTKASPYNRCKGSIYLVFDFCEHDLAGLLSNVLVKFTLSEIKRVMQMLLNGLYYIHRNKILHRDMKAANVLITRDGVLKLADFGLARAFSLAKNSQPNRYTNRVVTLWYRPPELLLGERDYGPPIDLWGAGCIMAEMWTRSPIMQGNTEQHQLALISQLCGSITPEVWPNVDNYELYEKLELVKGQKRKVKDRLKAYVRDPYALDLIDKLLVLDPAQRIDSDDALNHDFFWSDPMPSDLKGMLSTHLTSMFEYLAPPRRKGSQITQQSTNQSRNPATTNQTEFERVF

[21] = biological target: Mitogen-activated protein kinase 9 (Homo sapiens) (UniProt P45984); conditions: Compound concentration 1000.0 nM
[22] = biological target: Casein kinase I isoform alpha-like (Homo sapiens) (UniProt Q8N752); conditions: Compound concentration 1000.0 nM
[23] = biological target: Testis-specific serine/threonine-protein kinase 3 (Homo sapiens) (UniProt Q96PN8); conditions: Compound concentration 1000.0 nM
[24] = biological target: Mitogen-activated protein kinase 4 (Homo sapiens) (UniProt P31152); conditions: Compound concentration 1000.0 nM
[25] = biological target: Serine/threonine-protein kinase Nek9 (Homo sapiens) (UniProt Q8TD19); conditions: Compound concentration 1000.0 nM
[26] = biological target: Cyclin-dependent kinase 4 (Homo sapiens) (UniProt P11802); conditions: Compound concentration 1000.0 nM
[27] = system: Proto-oncogene tyrosine-protein kinase receptor Ret (Homo sapiens), P07949 [V804M]; conditions: Compound concentration 1000.0 nM
[28] = biological target: Phosphorylase b kinase gamma catalytic chain, skeletal muscle/heart isoform (Homo sapiens) (UniProt Q16816); conditions: Compound concentration 1000.0 nM
Phosphorylase b kinase gamma catalytic chain, skeletal muscle/heart isoform (Homo sapiens), sequence (Q16816 whole entry, looked up, the tested form may be a part, canonical isoform): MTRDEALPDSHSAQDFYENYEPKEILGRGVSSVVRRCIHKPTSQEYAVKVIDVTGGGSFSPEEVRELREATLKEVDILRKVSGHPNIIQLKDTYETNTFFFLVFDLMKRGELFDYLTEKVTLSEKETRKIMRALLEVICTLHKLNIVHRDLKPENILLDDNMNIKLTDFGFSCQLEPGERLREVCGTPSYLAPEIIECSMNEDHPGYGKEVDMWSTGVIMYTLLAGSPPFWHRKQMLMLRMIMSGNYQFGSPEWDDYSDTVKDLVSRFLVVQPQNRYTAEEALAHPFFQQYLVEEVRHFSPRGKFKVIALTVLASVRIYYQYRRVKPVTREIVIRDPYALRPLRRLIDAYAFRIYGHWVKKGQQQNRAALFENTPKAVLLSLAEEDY

[29] = biological target: Phosphatidylinositol 3-kinase C2 domain-containing subunit gamma (Homo sapiens) (UniProt O75747); conditions: Compound concentration 1000.0 nM
[30] = biological target: Inhibitor of nuclear factor kappa-B kinase subunit alpha (Homo sapiens) (UniProt O15111); conditions: Compound concentration 1000.0 nM
[31] = biological target: Serine/threonine-protein kinase PLK4 (Homo sapiens) (UniProt O00444); conditions: Compound concentration 1000.0 nM
[32] = biological target: Tyrosine-protein kinase Srms (Homo sapiens) (UniProt Q9H3Y6); conditions: Compound concentration 1000.0 nM
Tyrosine-protein kinase Srms (Homo sapiens), sequence (Q9H3Y6 whole entry): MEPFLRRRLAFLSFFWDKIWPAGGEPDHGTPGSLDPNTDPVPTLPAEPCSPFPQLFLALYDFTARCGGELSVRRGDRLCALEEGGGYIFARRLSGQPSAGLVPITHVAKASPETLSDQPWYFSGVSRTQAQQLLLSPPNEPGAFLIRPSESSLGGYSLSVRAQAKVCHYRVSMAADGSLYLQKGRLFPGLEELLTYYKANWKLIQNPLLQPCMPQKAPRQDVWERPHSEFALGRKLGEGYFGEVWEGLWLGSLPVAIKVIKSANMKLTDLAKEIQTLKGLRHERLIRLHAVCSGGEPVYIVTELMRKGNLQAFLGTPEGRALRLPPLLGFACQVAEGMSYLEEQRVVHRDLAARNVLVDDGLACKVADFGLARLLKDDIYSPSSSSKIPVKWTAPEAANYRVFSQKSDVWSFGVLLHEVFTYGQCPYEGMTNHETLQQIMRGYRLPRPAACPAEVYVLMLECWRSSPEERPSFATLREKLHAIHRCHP

[33] = biological target: Dual specificity mitogen-activated protein kinase kinase 5 (Homo sapiens) (UniProt Q13163); conditions: Compound concentration 1000.0 nM
[34] = biological target: Cyclin-dependent kinase 13 (Homo sapiens) (UniProt Q14004); conditions: Compound concentration 1000.0 nM
Cyclin-dependent kinase 13 (Homo sapiens), sequence (Q14004 whole entry, looked up): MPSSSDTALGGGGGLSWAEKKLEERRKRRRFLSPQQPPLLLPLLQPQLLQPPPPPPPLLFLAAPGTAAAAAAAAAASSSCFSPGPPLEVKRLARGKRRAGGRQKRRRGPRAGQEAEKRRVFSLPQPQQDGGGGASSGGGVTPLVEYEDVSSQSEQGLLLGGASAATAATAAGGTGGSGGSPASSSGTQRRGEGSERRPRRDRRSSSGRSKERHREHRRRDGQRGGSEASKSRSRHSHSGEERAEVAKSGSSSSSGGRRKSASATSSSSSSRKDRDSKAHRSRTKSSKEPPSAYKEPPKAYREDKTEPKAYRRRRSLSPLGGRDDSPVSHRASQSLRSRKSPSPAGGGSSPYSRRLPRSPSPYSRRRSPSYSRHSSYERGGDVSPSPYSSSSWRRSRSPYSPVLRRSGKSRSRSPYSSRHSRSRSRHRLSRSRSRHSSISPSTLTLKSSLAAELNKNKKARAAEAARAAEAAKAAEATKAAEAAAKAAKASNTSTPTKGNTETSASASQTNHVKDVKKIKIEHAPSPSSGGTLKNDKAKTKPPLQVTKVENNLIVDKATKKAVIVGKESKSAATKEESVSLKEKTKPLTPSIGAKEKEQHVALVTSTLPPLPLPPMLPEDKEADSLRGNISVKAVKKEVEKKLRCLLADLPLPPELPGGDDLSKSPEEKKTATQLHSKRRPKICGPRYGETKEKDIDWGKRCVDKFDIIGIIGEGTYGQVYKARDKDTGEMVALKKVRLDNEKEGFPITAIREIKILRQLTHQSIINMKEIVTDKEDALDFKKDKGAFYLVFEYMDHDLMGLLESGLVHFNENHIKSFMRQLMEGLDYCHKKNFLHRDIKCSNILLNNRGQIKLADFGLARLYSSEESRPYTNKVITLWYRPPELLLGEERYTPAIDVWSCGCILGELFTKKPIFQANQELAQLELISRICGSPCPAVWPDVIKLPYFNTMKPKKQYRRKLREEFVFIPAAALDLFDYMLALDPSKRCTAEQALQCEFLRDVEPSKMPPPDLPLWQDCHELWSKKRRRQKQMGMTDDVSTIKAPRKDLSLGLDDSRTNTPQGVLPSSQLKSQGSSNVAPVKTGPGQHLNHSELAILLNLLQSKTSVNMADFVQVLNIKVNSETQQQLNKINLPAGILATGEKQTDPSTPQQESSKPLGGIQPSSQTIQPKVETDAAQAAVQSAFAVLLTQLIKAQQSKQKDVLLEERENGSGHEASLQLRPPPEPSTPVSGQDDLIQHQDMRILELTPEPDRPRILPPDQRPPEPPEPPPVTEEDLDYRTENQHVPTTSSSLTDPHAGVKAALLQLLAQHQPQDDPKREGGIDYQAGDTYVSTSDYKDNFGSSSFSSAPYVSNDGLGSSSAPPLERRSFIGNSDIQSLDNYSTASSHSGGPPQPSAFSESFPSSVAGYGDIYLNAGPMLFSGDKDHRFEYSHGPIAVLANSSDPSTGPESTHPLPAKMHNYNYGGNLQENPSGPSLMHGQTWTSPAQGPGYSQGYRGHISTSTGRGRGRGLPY

[35] = biological target: Ephrin type-A receptor 4 (Homo sapiens) (UniProt P54764); conditions: Compound concentration 1000.0 nM
[36] = biological target: Serine/threonine-protein kinase LATS1 (Homo sapiens) (UniProt O95835); conditions: Compound concentration 1000.0 nM
[37] = biological target: Serine/threonine-protein kinase Nek5 (Homo sapiens) (UniProt Q6P3R8); conditions: Compound concentration 1000.0 nM
[38] = biological target: Mitotic checkpoint serine/threonine-protein kinase BUB1 (Homo sapiens) (UniProt O43683); conditions: Compound concentration 1000.0 nM
[39] = biological target: Protein kinase C delta type (Homo sapiens) (UniProt Q05655); conditions: Compound concentration 1000.0 nM

With `O=C(Nc1ccc(Oc2ccc(F)cc2)cc1)N1CCc2ncccc2[C@H]1c1ccc(F)cc1` [BAY-897] the residual activity [1] was 100%, the residual activity [2] was 85% and the residual activity [3] was 96%. The residual activity [4] was 76%, the residual activity [5] was 92% and the residual activity [6] was 94%. For the same molecule, the residual activity [7] was 95%, the inhibition [8] was -2.98% and the residual activity [9] was 96%. It also gave an inhibition [10] of 12.2%, a residual activity [11] of 100% and a Ki [12] of 2400 nM. The residual activity [13] was 90%, the residual activity [14] was 100% and the residual activity [15] was 100%. It also gave a residual activity [16] of 100%, a residual activity [17] of 100% and a residual activity [18] of 77%. The residual activity [19] was 61%, the residual activity [20] was 87% and the residual activity [21] was 88%. The residual activity [22] was 92%, the residual activity [23] was 98% and the residual activity [24] was 95%. The residual activity [25] was 88%, the residual activity [26] was 96% and the residual activity [27] was 94%. It also gave a residual activity [28] of 100%, a residual activity [29] of 100% and a residual activity [30] of 100%. For the same molecule, the residual activity [31] was 94%, the residual activity [32] was 94% and the residual activity [33] was 81%. For the same molecule, the residual activity [34] was 100%, the residual activity [35] was 100% and the residual activity [36] was 86%. For the same molecule, the residual activity [37] was 96%, the residual activity [38] was 98% and the residual activity [39] was 100%.
Molecule `O=C(Nc1cnc(Oc2ccc(F)cc2)nc1)N1CCc2ncccc2[C@@H]1c1ccc(F)cc1` [BAY-899] has a residual activity [1] of 84%, a residual activity [2] of 90% and a residual activity [3] of 96%. For the same molecule, the residual activity [4] was 92%, the residual activity [5] was 90% and the residual activity [6] was 100%. It also gave a residual activity [7] of 100%, an inhibition [8] of 7.56% and a residual activity [9] of 97%. The inhibition [10] was -4.4%, the residual activity [11] was 83% and the Ki [12] was 1430 nM. For the same molecule, the residual activity [13] was 78%, the residual activity [14] was 90% and the residual activity [15] was 89%. It also gave a residual activity [16] of 85%, a residual activity [17] of 94% and a residual activity [18] of 100%. The residual activity [19] was 100%, the residual activity [20] was 93% and the residual activity [21] was 85%. It also gave a residual activity [22] of 82%, a residual activity [23] of 86% and a residual activity [24] of 95%. The residual activity [25] was 90%, the residual activity [26] was 100% and the residual activity [27] was 94%. For the same molecule, the residual activity [28] was 100%, the residual activity [29] was 97% and the residual activity [30] was 100%. For the same molecule, the residual activity [31] was 100%, the residual activity [32] was 95% and the residual activity [33] was 83%. The residual activity [34] was 100%, the residual activity [35] was 88% and the residual activity [36] was 100%. The residual activity [37] was 90%, the residual activity [38] was 92% and the residual activity [39] was 87%.

From ChEMBL document CHEMBL4507317, “Data for DCP probe BAY-899” (2021)
